Source: patent US12338256B2, “Aza-tetracyclic oxazepine compounds and uses thereof” (Genentech, Inc., priority 2022, dated 2025)
Read-outs that look alike come from different tables or passages of the source.

Columns and labels:
Assay type in all cases: cell-based
[1] = tested on: AsPC-1 (homozygous mutant KRAS G12D human pancreatic cell line); test: KRAS 3D-Cell Proliferation Assay, AsPC-1 (Example 503); conditions: AsPC-1 3D culture, 7 days, CellTiter-Glo 3D, read-out: Prolif AsPC-1 3D ATP IC50
Description: Example 503: KRAS 3D-Cell Proliferation Assays. Cellular potencies of compounds are assessed by evaluating inhibition of proliferation in 3D cultures of homozygous mutant KRAS G12D human pancreatic cell lines (AsPC-1 and HPAC) as compared to a KRAS wild type human lung adenocarcinoma cell line (PC-9 and/or H1975). Cells are seeded into 384-well black round-bottom, ultra-low attachment assay plates in 50 uL cell growth medium (RPMI-1640 with 10% fetal bovine serum and 2 mM L-glutamine). After overnight incubation at 37° C. and 5% CO2, compounds solubilized in DMSO are added as dilution series to the wells in a total volume of 150 nL (0.3% DMSO final). The cells are incubated for 7 days at 37° C. and 5% CO2. Cell proliferation is quantitated by addition of 40 uL/well of CellTiter-GloÒ 3D (Promega), and the well contents are mixed 20× at high speed using liquid handling automation workstation (Bravo with 384-well head) and centrifuged at 1500 rpm for 2 minutes to eliminate bubbles. This reagent in combination with mechanical disruption releases the cellular ATP to promote activity in a luciferase-based enzyme/substrate chemiluminescent detection system. After a 30-minute incubation under ambient conditions with shaking and an additional 10 minutes without shaking, the luminescence is read on a plate reader (e.g., EnVision [PerkinElmer]). The results are normalized to percent inhibition based on the following control samples: DMSO (0% inhibition) and 1 μM staurosporine (100% inhibition). The normalized luminescence results are plotted against compound concentration, and the data are fit to a 4-parameter Hill equation to determine the IC50 values.

[2] = tested on: HPAC (homozygous mutant KRAS G12D human pancreatic cell line); test: KRAS 3D-Cell Proliferation Assay, HPAC (Example 503); conditions: Homo sapiens, HPAC, 168 h, HPAC 3D culture, 7 days, CellTiter-Glo 3D; read-out: Prolif HPAC 3D ATP IC50
Procedure, shortened: (§1)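 IC50 values derive from 4-parameter Hill fits of normalized luminescence, where DMSO sets 0% and 1 μM staurosporine 100% inhibition. 3D cultures in RPMI-1640 with 10% fetal bovine serum were exposed to compound for 7 days before CellTiter-Glo 3D lysis.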

[3] = tested on: H1975 (KRAS wild type human lung adenocarcinoma cell line); test: KRAS 3D-Cell Proliferation Assay, H1975 (Example 503); conditions: Homo sapiens, NCI-H1975, 168 h, H1975 3D culture, 7 days, CellTiter-Glo 3D; read-out: Prolif H1975 3D ATP IC50
Procedure, shortened: as §1

Structure (SMILES)	IC50 ([1]; Homo sapiens, ASPC1, 168 h) [nM]	IC50 [1] [nM]	IC50 [2] [nM]	IC50 [3] [nM]
Cc1c(F)c(N)cc(-c2nc3c4c(nc(OCC56CCN5CC(F)(F)C6)nc4c2F)N2C[C@H]4CC[C@H](N4)[C@H]2[C@H](C(F)(F)F)O3)c1C(F)(F)F (single isomer, unassigned) [263 (diast. 1)]	7.1	–	–	–
Cc1c(F)c(N)cc(-c2nc3c4c(nc(OC[C@]5(CN6CC7(COC7)C6)CC5(F)F)nc4c2F)N2C[C@H]4CC[C@H](N4)[C@H]2[C@H](C(F)(F)F)O3)c1C(F)(F)F [255 a]	–	6.6	–	–
Cc1cc(N)c(F)c(-c2nc3c4c(nc(OCC56CCN5CC(F)(F)C6)nc4c2F)N2C[C@H]4CC[C@H](N4)[C@H]2[C@H](C)O3)c1 (stereo in doubt) [Compound 23, 3-((5S,5aS,6S,9R)-12-((3,3-difluoro-1-azabicyclo[3.2.0]heptan-5-yl)methoxy)-1-fluoro-5-methyl-5a,6,7,8,9,10-hexahydro-5H-4-oxa-3,10a,11,13,14-pentaaza-6,9-methanonaphtho[1,8-ab]heptan-2-yl)-2-fluoro-5-methylaniline]	14000	≥ 20000	–	–
Cc1c(F)c(N)cc(-c2nc3c4c(nc(OCC56CCCC5N(C)CCC6)nc4c2F)N2C[C@H]4CC[C@H](N4)[C@H]2[C@H](C)O3)c1C(F)(F)F (single isomer, unassigned) [126 (isomer 1)]	0.6	–	–	–
Cc1cc(N)c(F)c(-c2nc3c4c(ncnc4c2Cl)N2C[C@H]4CC[C@H](N4)[C@H]2[C@H](C)O3)c1C(F)(F)F (atropisomer, axis not shown) [Compound 95, 3-((5S,5aS,6S,9R)-1-chloro-5-methyl-5a,6,7,8,9,10-hexahydro-5H-4-oxa-3,10a,11,13,14-pentaaza-6,9-methanonaphtho[1,8-ab]heptalen-2-yl)-2-fluoro-5-methyl-4-(trifluoromethyl)aniline]	200	–	–	–
Cc1c(F)c(N)cc(-c2nc3c4c(nc(OCC5COCC6CCCN65)nc4c2F)N2CC4CCC(N4)C2C(C)O3)c1C(F)(F)F (single isomer, unassigned) [121 (isomer 2)]	41	–	–	–
Cc1c(F)c(N)cc(-c2nc3c4c(nc(OCC56CCCN5CC(F)C6F)nc4c2F)N2C[C@H]4CC[C@H](N4)[C@H]2[C@H](C)O3)c1C(F)(F)F (single isomer, unassigned) [143 (isomer 2)]	4.1	–	–	–
Cc1nc(N)cc(-c2nc3c4c(nc(OCC5(CN6CC[C@H]7OCC[C@H]76)CC5)nc4c2F)N2C[C@H]4CC[C@H](N4)[C@H]2[C@H](C)O3)c1C(F)(F)F [Compound 268, 4-((5S,5aS,6S,9R)-1-fluoro-12-((1-(((3aR,6aR)-hexahydro-4H-furo[3,2-b]pyrrol-4-yl)methyl)cyclopropyl)methoxy)-5-methyl-5a,6,7,8,9,10-hexahydro-5H-4-oxa-3,10a,11,13,14-pentaaza-6,9-methanonaphtho[1,8-ab]heptalene-2-yl)-6-methyl-5-(trifluoromethyl)pyridin-2-amine]	–	–	2.17	1700
Cc1nc(N)cc(-c2nc3c4c(nc(OCC5(CN6CC(C(F)F)C6)CC5)nc4c2F)N2C[C@H]4CC[C@H](N4)[C@H]2[C@H](C)O3)c1C(F)(F)F [Compound 274, 4-((5S,5aS,6S,9R)-12-((1-((3-(difluoromethyl)90eptalene-1-yl)methyl)cyclopropyl)methoxy)-1-fluoro-5-methyl-5a,6,7,8,9,10-hexahydro-5H-4-oxa-3,10a,11,13,14-pentaaza-6,9-methanonaphtho[1,8-ab]heptalene-2-yl)-6-methyl-5-(trifluoromethyl)pyridin-2-amine]	–	–	7.55	1070
Cc1nc(N)cc(-c2nc3c4c(nc(OCC5(CN6CC7CCOC7C6)CC5)nc4c2F)N2C[C@H]4CC[C@H](N4)[C@H]2[C@H](C)O3)c1C(F)(F)F (stereo partly drawn) [Compound 280, 4-((5S,5aS,6S,9R)-1-fluoro-12-((1-((hexahydro-5H-furo[2,3-c]pyrrol-5-yl)methyl)cyclopropyl)methoxy)-5-methyl-5a,6,7,8,9,10-hexahydro-5H-4-oxa-3,10a,11,13,14-pentaaza-6,9-methanonaphtho[1,8-ab]heptalene-2-yl)-6-methyl-5-(trifluoromethyl)pyridin-2-amine]	–	–	1.77	1340
Cc1cc(N)c(F)c(-c2nc3c4c(nc(OC[C@@H]5CC[C@H]6COCCN65)nc4c2F)N2C[C@H]4CC[C@H](N4)[C@H]2[C@H](C)O3)c1Cl [Compound 101, 4-Chloro-2-fluoro-3-((5S,5aS,6S,9R)-1-fluoro-12-(((6S,8aS)-hexahydro-1H-pyrrolo[2,1-c][1,4]oxazin-6-yl)methoxy)-5-methyl-5a,6,7,8,9,10-hexahydro-5H-4-oxa-3,10a,11,13,14-pentaaza-6,9-methanonaphtho[1,8-ab]heptalen-2-yl)-5-methylaniline]	–	–	41.5	8490
Cc1nc(N)cc(-c2nc3c4c(nc(OCC5(CN6CCC(C(F)F)C6)CC5)nc4c2F)N2C[C@H]4CC[C@H](N4)[C@H]2[C@H](C)O3)c1C(F)(F)F (stereo partly drawn) [Compound 276, 4-((5S,5aS,6S,9R)-12-((1-((3-(difluoromethyl)pyrrolidin-1-yl)methyl)cyclopropyl)methoxy)-1-fluoro-5-methyl-5a,6,7,8,9,10-hexahydro-5H-4-oxa-3,10a,11,13,14-pentaaza-6,9-methanonaphtho[1,8-ab]heptalen-2-yl)-6-methyl-5-(trifluoromethyl)pyridin-2-amine]	–	–	1.82	1620
Cc1nc(N)c(C)c(-c2nc3c4c(nc(OC[C@@]56CCCN5C[C@H](F)C6)nc4c2F)N2C[C@H]4CC[C@H](N4)[C@H]2[C@H](C)O3)c1C(F)(F)F [Compound 198, 4-((5S,5aS,6S,9R)-1-Fluoro-12-(((2R,7aS)-2-fluorotetrahydro-1H-pyrrolizin-7a(5H)-yl)methoxy)-5-methyl-5a,6,7,8,9,10-hexahydro-5H-4-oxa-3,10a,11,13,14-pentaaza-6,9-methanonaphtho[1,8-ab]heptalen-2-yl)-3,6-dimethyl-5-(trifluoromethyl)pyridin-2-amine]	–	–	13	3720
Cc1nc(N)cc(-c2nc3c4c(nc(OCC5(CN6CCC(F)(F)C6)CC5)nc4c2F)N2C[C@H]4CC[C@H](N4)[C@H]2[C@H](C)O3)c1C(F)(F)F [Compound 288, 4-((5S,5aS,6S,9R)-12-((1-((3,3-difluoropyrrolidin-1-yl)methyl)cyclopropyl)methoxy)-1-fluoro-5-methyl-5a,6,7,8,9,10-hexahydro-5H-4-oxa-3,10a,11,13,14-pentaaza-6,9-methanonaphtho[1,8-ab]heptalene-2-yl)-6-methyl-5-(trifluoromethyl)pyridin-2-amine]	–	–	18.8	9810
Cc1c(F)c(N)cc(-c2nc3c4c(nc(OCC56CCN5CC(F)(F)C6)nc4c2F)N2C[C@H]4CC[C@H](N4)[C@H]2[C@H](C(F)(F)F)O3)c1C(F)(F)F (mixture of isomers) [Compound 244, 5-((5R,5aS,6S,9R)-12-((3,3-Difluoro-1-azabicyclo[3.2.0]heptan-5-yl)methoxy)-1-fluoro-5-(trifluoromethyl)-5a,6,7,8,9,10-hexahydro-5H-4-oxa-3,10a,11,13,14-pentaaza-6,9-methanonaphtho[1,8-ab]heptalene-2-yl)-2-fluoro-3-methyl-4-(trifluoromethyl)aniline]	–	–	6.14	258
Cc1nc(N)c(F)c(-c2nc3c4c(nc(OCC5(CN6C[C@@H]7C[C@H]6CO7)CC5)nc4c2F)N2C[C@H]4CC[C@H](N4)[C@H]2[C@H](C)O3)c1C(F)(F)F [Compound 222, 4-((5S,5aS,6S,9R)-12-((1-(((1S,4S)-2-Oxa-5-azabicyclo[2.2.1]heptan-5-yl)methyl)cyclopropyl)methoxy)-1-fluoro-5-methyl-5a,6,7,8,9,10-hexahydro-5H-4-oxa-3,10a,11,13,14-pentaaza-6,9-methanonaphtho[1,8-ab]heptalene-2-yl)-3-fluoro-6-methyl-5-(trifluoromethyl)pyridin-2-amine]	–	–	5.76	1480
